Broadly, the IC50 is the concentration at which inhibition is half-maximal.

“And” between values parts separate entries of the source, which are not always exact repeats. Identical values can stand only once.

Data set [1] deals with Solid Ehrlich Carcinoma (SEC). Briefly: In vivo antitumor activity against Solid Ehrlich Carcinoma. Set-up: species or system Swiss albino mice. The following applies: SEC-bearing mice, 5 mg/kg BW I.P. Here is the method: To examine the in vivo anticancer activity of compound 9d, adult female Swiss albino mice (30 mice) inoculated with I.P. injection of Solid Ehrlich Carcinoma (SEC) tumour cell lines in a volume of 0.2 ml physiological saline contains 1 × 10^6 viable cells for 24 h.
These mice were randomly divided into four groups (7 mice/group). […] Bodyweight and survival were recorded daily until the 24th day in both treated and control groups. At the end of the experiment, the blood of each group was collected under light anaesthesia for the estimation of hematological and biochemical assays. The anaesthetised animals were then sacrificed to evaluate of the antitumor activity and to conduct hematological, biochemical, and histopathological assays, Figure 3.
Adult female Swiss albino mice purchased from Theodor Bilharzia Research Institute, Giza, Egypt, with an average bodyweight of (18–23) g were used. Mice were housed under constant conditions of 12 h light/dark cycle in a […], with free access to standard laboratory mice food and water. All procedures related to care and maintenance of the animals were performed according to the international guiding principles for animal research and approved by the Faculty of Science, Suez Canal University bioethics and animal ethics committee (Approval number REC-07–2021).
Solid Ehrlich carcinoma (SEC) was purchased from the National Cancer Institute (Cairo University, Egypt). The tumour cell line was proliferated in mice through serial intraperitoneal (I.P.) transplantation of a volume of 0.2 ml physiological saline contains 1 × 10^6 viable cells for 24 h. SEC cells were collected 7 days after I.P. implantation. The harvested cells were diluted with saline to obtain a concentration of 5 × 10^6 viable SEC cells/mL. A volume of 0.2 ml saline contains 1 × 10^6 SEC cells that were I.P. implanted into each normal mouse. SEC cells (1 × 10^6 tumour cells/mouse) were implanted subcutaneously into the right thigh of the hind limb.
(§1) The experimental animals were randomly divided into four groups. Group 1 served as the normal saline control (5 ml/kg B.Wt., I.P.). Group 2 served as the SEC control (1 × 10^6 cells/mouse). Group 3 served as the compound-treated group (5 mg/kg B.Wt., I.P.). […] Bodyweight and survival were recorded daily until the 24th day in both treated and control groups. At the end of the experiment, the blood of each group was collected under light anaesthesia to the estimate of hematological and biochemical assays. The anaesthetised animals were then sacrificed for evaluation of the antitumor activity and histopathological examination.
It includes tumour volume, weight, and tumour inhibition ratio (TIR%). Time interval measurements of tumour volume using digital Vernier calliper (Tricle Brand, Shanghai, China). Measure tumour length and width using a clipper and then calculate tumour volume using formulations V = (L × W × W)/2, where V is tumour volume, W is tumour width, L is tumour length. While TIR% was calculated according to the following equation Tumor volume (Control)−Tumor volume (treated)/Tumor volume (control)× 100.

The nature of data set [2]: Hematological and biochemical blood assays in SEC-bearing mice. To be noted: 5 mg/kg BW, Mean ± SEM (n = 7), 5 mg/kg. Format: in vivo, Swiss albino mice. Here is the method: At the end of the experiment, animals from different groups were sacrificed, and blood samples were collected for hematological parameters, including Hb, RBC’s, and WBC’s levels, and serum for determination of liver enzymes ALT, AST levels, and proteins.
as §1
At the end of the experiment, animals from different groups were sacrificed, and blood samples were collected for hematological parameters including, Hb, RBC’s, and WBC’s levels, and serum for determination of liver enzymes ALT, AST levels, and proteins. Complete blood count (CBC) was investigated using the Abbott CELL-DYN®1800 automated haematology analyser (USA) using ready-made kits (Abbott Laboratories, Abbott Park, IL, USA). Activities of aspartate aminotransferase (AST) and alanine aminotransferase (ALT) were evaluated using commercial kits (ELITech clinical systems, France). Serum albumin level was determined by kit purchased from STANBIO Company (USA). Protein content was determined by colorimetric method using ready-made kits produced by Instrumentation Laboratory SpA, Inova diagnostics, Milano, Italy.

The test system of data set [3] is MCF-7 cells (human breast adenocarcinoma). Kind of data set: MTT anti-proliferative assay, MCF-7. Format: cell-based. The following applies: Homo sapiens, MCF7, MTT, mean ± SD of three separate experiments; read-out: In vitro Cytotoxicity IC50 MCF-7. Here is the method: (§2) Anti-proliferative activities of the target compounds were assessed via the standard MTT method[38–40] against three cancer cell lines, namely, hepatocellular carcinoma (HepG-2), colorectal carcinoma (HCT-116), and human breast adenocarcinoma (MCF-7). Doxorubicin was used in this test as a positive control.
(§3) Anti-proliferative activity of the synthesised compounds was estimated using the MTT assay protocol[8]^,[38–40] as shown in Supplementary data.
(§4) 4.2.1. In vitro anti-proliferative activity against MCF-7, HepG-2 and HCT-116 The cells were cultured in RPMI-1640 medium supplemented with 10% fetal bovine serum (FBS), penicillin (100 unit /mL) and streptomycin sulphate (100µg/mL) at 37 °C in a 5% CO2 incubator.
(§5) Then, cells were dropped in 96-well plates at a density of 3-8 × 10^3 cells/well and incubated for two days in a 5% CO2 incubator at 37 °C. Then, the cells were treated with the synthesized compounds and the cell cultures were continued incubated for 24 h. However, Different concentrations of the compound under test (0.0, 5.0, 12.5, 25.0 and 50 mg/ml) were added to the cell monolayer. Then, (3-[4,5-dimethylthiazol-2-yl]- 2,5-diphenyltetrazolium bromide) MTT solution (20 µl, 5mg/mL) was added to each well and incubated for additional 4 h. The formed purple crystals of MTT-formazan were dissolved in 100 µl DMSO each well; the absorbance of each well was measured at 570 nm using a plate reader (EXL 800, USA). All of the compounds were tested three times. The relative cell viability in percentage was calculated. The results for IC50 values of the active compounds are […]
(§6) The data represented the mean of three independent experiments in triplicate and were expressed as means ± SD. […]
(§7) of the cells could survive. […]
Background: Formazan colour is commonly taken as a measure of viable cells.

Data set [4] has as its system HCT-116 cells (colorectal carcinoma). Kind of data set: MTT anti-proliferative assay, HCT-116. Format: cell-based, human. Here is the method:
as §2, §3, §4, §5, §6, §7

In data set [1], `CCCc1nnc2c3ccccc3c(NN=Cc3ccc([N+](=O)[O-])cc3)nn12` [Compound 9d, 6-[2–(4-Nitrobenzylidene)hydrazineyl]-3-propyl-[1,2, 4]triazolo[3,4-a]phthalazine] returned a tumour volume of 19 mm^3. Further, the “reduction of the increase in solid tumour mass” value in data set [1] (compared to SEC control) is reported as 63.4%. In data set [1] (SEC control 194 mg), this compound came in with a solid tumour mass of 71 mg. Also, in data set [1] (from tumour volume, compared to control), the “tumour inhibition ratio (TIR) %” value amounted to 64.5%. In data set [2], this compound returned an ALT of 42.9 U/L, an AST of 55.6 U/L, an Albumin of 6.25 g/dL and a Hb of 8.2 g/dL. Moreover, in data set [2], the RBCs count was 5.37 ×10^6/µL and 5.37 ± 0.37 ×10^6/µL; the “Total Protein” value worked out at 8.04 g/dL; the WBCs count was determined as 3720 µL⁻¹. In addition, in data set [3], the 50% inhibitory concentration (IC50) turned out to be 4.95 ± 0.1 µM. Also, in data set [4] (Homo sapiens, HCT-116, MTT, mean ± SD of three separate experiments, read-out: In vitro Cytotoxicity IC50 HCT-116), the IC50 was 4.74 ± 0.15 µM. In data set [4] (ratio of IC50 values vs doxorubicin), the “times more active than doxorubicin, HCT-116” value was found to be 2.03 times.
